From US11926613B2, “Kinase inhibitors for the treatment of central and peripheral nervous system disorders” (UNIVERSITY OF MIAMI, priority 2017, dated 2024) come the findings set out here.

Test [1] has as its system neurons from hippocampi of E18 rat embryos. Nature of the test: Neurite growth length (% NTL) in cultured E18 rat hippocampal neurons, 9-point dose response, 48 hours. The conditions noted are these: Rattus norvegicus, Neuron, 48 h; for activity at 0.078 µM: 78 nM; for activity at 0.156 µM: 156 nM; for activity at 0.312 µM: 312 nM; for activity at 0.625 µM: 625 nM. The class given is cell-based. The procedure, abridged:
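% NTL comes from automated neurite tracing of βIII-tubulin-stained cells, with 200–300 or more neurons per condition. Compounds were given in a 9-point dilution series (20 μM to 0.078125 μM) for 48 h. Cells were trypsin-dissociated E18 rat hippocampal neurons plated at 1500/well on poly-D-lysine.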

The test system of a further test is Primary Neurons. Nature of the test: HCS neurite outgrowth assay (High Content Screening with Primary Neurons). The class given is cell-based. The conditions noted are these: Primary neuron.

As usually defined, the EC50 is the concentration at which the effect is half-maximal. Consider `COc1ccc(O)c(C(=O)c2ccc(C(=O)N[C@@H]3CCCC[C@H]3NC(=O)c3ccncc3)cc2)c1F` [Example A22], for which, in test [1], the activity at 0.078 µM turned out to be 89.3%, the activity at 0.156 µM came out at 91.8%, the activity at 0.312 µM was 92.3% and the activity at 0.625 µM stood at 86.2%. For the same compound, in test [1], the activity at 1.25 µM amounted to 85.5%, the activity at 2.5 µM amounted to 85.5%, the activity at 5 µM was found to be 88.7% and the activity at 10 µM amounted to 91.1%. Also, in test [1], the activity at 20 µM worked out at 94.7%. The compound further had an EC50 in the test with Primary Neurons of 2.61 µM.

Take `Cc1ccc(C(=O)c2ccc(C(=O)N[C@@H]3CNC[C@H]3NC(=O)c3ccnc(N)n3)cc2)c(O)c1` [Example A80, 2-amino-N-[(3R,4R)-4-[4-(2-hydroxy-4-methylbenzoyl)benzamido]pyrrolidin-3-yl]pyrimidine-4-carboxamide]: in test [1], the activity at 0.078 µM was 125%, the activity at 0.156 µM was 124%, the activity at 0.312 µM was 141% and the activity at 0.625 µM came to 158%. Also, in test [1], the activity at 1.25 µM turned out to be 178%, the activity at 2.5 µM came out at 221%, the activity at 5 µM came out at 203% and the activity at 10 µM stood at 160%. For the same compound, the activity at 20 µM in test [1] stood at 155%. Also, the EC50 with Primary Neurons stood at 0.534 µM.

With `COc1ccc(O)c(C(=O)c2ccc(C(=O)N[C@@H]3CCC[C@H]3NC(=O)c3ccncc3)cc2)c1F` [Example A18, N-[(1R,2R)-2-[4-(2-fluoro-6-hydroxy-3-methoxybenzoyl)benzamido]cyclopentyl] pyridine-4-carboxamide], in test [1], the activity at 0.078 µM amounted to 113%, the activity at 0.156 µM was determined as 115%, the activity at 0.312 µM is 119% and the activity at 0.625 µM turned out to be 120%. Moreover, in test [1], the activity at 1.25 µM stood at 121%, the activity at 2.5 µM came out at 133%, the activity at 5 µM is 130% and the activity at 10 µM was found to be 131%. Moreover, in test [1], the activity at 20 µM is 140%. The compound also registered an EC50 in the test on Primary Neurons of 6.61 µM.

Turning to `O=C(N[C@@H]1CCCCC[C@H]1NC(=O)c1ccc(C(=O)c2ccccc2)cc1)c1ccncc1` [Example A23, N-[(1R,2R)-2-(4-benzoylbenzamido)cycloheptyl]pyridine-4-carboxamide], in test [1], the activity at 0.078 µM came out at 98.3%, the activity at 0.156 µM came to 102%, the activity at 0.312 µM is 95.6% and the activity at 0.625 µM turned out to be 93.6%. Besides, in test [1], the activity at 1.25 µM came to 97%, the activity at 2.5 µM is 101%, the activity at 5 µM is 105% and the activity at 10 µM is 117%. For the same compound, the activity at 20 µM in test [1] is 144%. The compound also yielded an EC50 in the test on Primary Neurons of 16.8 µM.

With `COc1ccc(O)c(C(=O)c2ccc(C(=O)N[C@@H]3CNC[C@H]3NC(=O)c3ccc(O)cc3)cc2)c1F` [Example A37, N-[(3R,4R)-4-[4-(2-fluoro-6-hydroxy-3-methoxybenzoyl)benzamido]pyrrolidin-3-yl]-4-hydroxybenzamide], in test [1], the activity at 0.078 µM stood at 100%, the activity at 0.156 µM is 109%, the activity at 0.312 µM turned out to be 113% and the activity at 0.625 µM was determined as 107%. In addition, in test [1], the activity at 1.25 µM was 113%, the activity at 2.5 µM turned out to be 124%, the activity at 5 µM came to 132% and the activity at 10 µM was 155%. The activity at 20 µM in test [1] was 212%. The compound further had an EC50 in the test on Primary Neurons of over 20 µM.

For `O=C(N[C@@H]1c2ccccc2C[C@H]1NC(=O)c1ccncc1)c1ccc(C(=O)c2ccccc2)cc1` [Example A11, N-[(1R,2R)-1-(4-benzoylbenzamido)-2,3-dihydro-1H-inden-2-yl]pyridine-4-carboxamide], in test [1], the activity at 0.078 µM was determined as 104%, the activity at 0.156 µM is 102%, the activity at 0.312 µM was determined as 87.4% and the activity at 0.625 µM was determined as 93.8%. In test [1], the activity at 1.25 µM was 91.7%, the activity at 2.5 µM stood at 98.5%, the activity at 5 µM is 94.6% and the activity at 10 µM came to 110%. Besides, the activity at 20 µM in test [1] came to 110%. Also, the EC50 in the test with Primary Neurons amounted to 5.58 µM.

As for `COc1ccc(OC)c(C(=O)c2ccc(C(=O)N[C@@H]3CN(C)C[C@H]3NC(=O)c3ccncc3)cc2)c1F` [Example A33, N-[(3R,4R)-4-[4-(2-fluoro-3,6-dimethoxybenzoyl)benzamido]-1-methylpyrrolidin-3-yl]pyridine-4-carboxamide], in test [1], the activity at 0.078 µM came to 108%, the activity at 0.156 µM stood at 106%, the activity at 0.312 µM was found to be 99.3% and the activity at 0.625 µM was 107%. Also, in test [1], the activity at 1.25 µM was 115%, the activity at 2.5 µM was 129%, the activity at 5 µM came to 142% and the activity at 10 µM amounted to 159%. Further, in test [1], the activity at 20 µM came out at 207%. Also, the EC50 in the test on Primary Neurons is over 20 µM.

Regarding `COc1ccc(O)c(C(=O)c2ccc(C(=O)N[C@@H]3CNC[C@H]3NC(=O)Cc3cn[nH]c3)cc2)c1F` [Example A47, 4-(2-fluoro-6-hydroxy-3-methoxybenzoyl)-N-[(3R,4R)-4-[2-(1H-pyrazol-4-yl)acetamido]pyrrolidin-3-yl]benzamide], in test [1], the activity at 0.078 µM is 100%, the activity at 0.156 µM was 99.3%, the activity at 0.312 µM is 99.7% and the activity at 0.625 µM came to 96.8%. In addition, in test [1], the activity at 1.25 µM amounted to 104%, the activity at 2.5 µM was 112%, the activity at 5 µM amounted to 122% and the activity at 10 µM is 128%. In test [1], the activity at 20 µM came out at 162%. This compound registered an EC50 with Primary Neurons of 7.43 µM.

On to `COc1ccc(O)c(C(=O)c2ccc(C(=O)Nc3ccncc3NC(=O)c3ccncc3)cc2)c1F` [Example A2, N-{4-[4-(2-fluoro-6-hydroxy-3-methoxybenzoyl)benzamido]pyridin-3-yl}pyridine-4-carboxamide], for which, in test [1], the activity at 0.078 µM came to 93.8%, the activity at 0.156 µM was 96.2%, the activity at 0.312 µM was found to be 84.6% and the activity at 0.625 µM was determined as 93%. In addition, in test [1], the activity at 1.25 µM turned out to be 88.9%, the activity at 2.5 µM is 91.1%, the activity at 5 µM was 94.1% and the activity at 10 µM is 93.4%. Further, in test [1], the activity at 20 µM turned out to be 100%. This compound also registered an EC50 in the test on Primary Neurons of 1.81 µM.

Regarding `COc1ccc(O)c(C(=O)c2ccc(C(=O)N[C@@H]3CNC[C@H]3NC(=O)c3ccnc4[nH]ccc34)cc2)c1F` [Example A56, N-[(3R,4R)-4-[4-(2-fluoro-6-hydroxy-3-methoxybenzoyl)benzamido]pyrrolidin-3-yl]-1H-pyrrolo[2,3-b]pyridine-4-carboxamide], in test [1], the activity at 0.078 µM amounted to 128%, the activity at 0.156 µM is 137%, the activity at 0.312 µM is 131% and the activity at 0.625 µM turned out to be 133%. In addition, in test [1], the activity at 1.25 µM came out at 165%, the activity at 2.5 µM was 196%, the activity at 5 µM came to 267% and the activity at 10 µM was 375%. Also, the activity at 20 µM in test [1] amounted to 488%. In the test on Primary Neurons, this compound returned an EC50 of 8.54 µM.

As for `COc1ccc(O)c(C(=O)c2ccc(C(=O)N[C@@H]3CNC[C@H]3NC(=O)c3cccnc3)cc2)c1F` [Example A38, N-[(3R,4R)-4-[4-(2-fluoro-6-hydroxy-3-methoxybenzoyl)benzamido]pyrrolidin-3-yl]pyridine-3-carboxamide], in test [1], the activity at 0.078 µM amounted to 108%, the activity at 0.156 µM is 102%, the activity at 0.312 µM is 103% and the activity at 0.625 µM was determined as 96.6%. In test [1], the activity at 1.25 µM came out at 100%, the activity at 2.5 µM was 100%, the activity at 5 µM is 106% and the activity at 10 µM came out at 100%. The activity at 20 µM in test [1] came out at 87.7%. In addition, in the test with Primary Neurons, the midpoint of the response, the EC50, lay at 3.15 µM.

In the case of `O=C(N[C@@H]1CNC[C@H]1NC(=O)c1ccncc1)c1ccccc1` (stereo in doubt) [Example A20, N-[(3R,4R)-4-benzamidopyrrolidin-3-yl]pyridine-4-carboxamide], in test [1], the activity at 0.078 µM was determined as 86.2%, the activity at 0.156 µM came to 81.5%, the activity at 0.312 µM came out at 77.7% and the activity at 0.625 µM was 86.1%. In test [1], the activity at 1.25 µM stood at 88.4%, the activity at 2.5 µM was 90.2%, the activity at 5 µM was 90.7% and the activity at 10 µM amounted to 93.8%. Besides, in test [1], the activity at 20 µM was found to be 103%. This compound also yielded an EC50 with Primary Neurons of 9.49 µM.

`O=C(N[C@@H]1CNC[C@H]1NC(=O)c1ccc(C(=O)c2ccc(Cl)cc2O)cc1)c1ccncc1` [Example A79, N-[(3R,4R)-4-[4-(4-chloro-2-hydroxybenzoyl)benzamido]pyrrolidin-3-yl]pyridine-4-carboxamide]: in test [1], the activity at 0.078 µM was 116%, the activity at 0.156 µM came to 109%, the activity at 0.312 µM worked out at 117% and the activity at 0.625 µM came out at 118%. In test [1], the activity at 1.25 µM was 111%, the activity at 2.5 µM worked out at 116%, the activity at 5 µM came to 112% and the activity at 10 µM turned out to be 107%. For the same compound, in test [1], the activity at 20 µM stood at 94.7%. Besides, the EC50 in the test on Primary Neurons was over 20 µM.

As to `COc1ccc(O)c(C(O)c2ccc(C(=O)N[C@@H]3CNC[C@H]3NC(=O)c3ccncc3)cc2)c1F` (stereo partly drawn) [Example A59, N-[(3R,4R)-4-{4-[(2-fluoro-6-hydroxy-3-methoxyphenyl)(hydroxy)methyl]benzamido}pyrrolidin-3-yl]pyridine-4-carboxamide], in test [1], the activity at 0.078 µM was found to be 91.9%, the activity at 0.156 µM worked out at 82.8%, the activity at 0.312 µM is 73.6% and the activity at 0.625 µM worked out at 82.3%. In test [1], the activity at 1.25 µM was found to be 76.7%, the activity at 2.5 µM turned out to be 91.2%, the activity at 5 µM is 95.4% and the activity at 10 µM turned out to be 111%. Moreover, the activity at 20 µM in test [1] turned out to be 106%. The EC50 in the test with Primary Neurons came to 7.13 µM.
